According to patent US20230255906A1, “Targeting Serpin B9 in Cancer” (The Brigham and Women`s Hospital, Inc., priority 2020, published 2023):
pKd: −log10 of the molar value. Residues, ends and D or L forms follow the SMILES beside them. *: point of attachment. Cbz = O=C(OCc1ccccc1)*; CH2Cl = ClC*

What was measured:
[1] = test system: B16-WT and B16-Sb9 KO cells; test: IL2-induced GrB expression and apoptosis by flow cytometry; type: cell-based, mouse; settings: 10 μM; IL2 70 ng/mL, 48 h
Text: FIG. 1H. […] Data are expressed as means±SD from three independent experiments. ***P<0.001 (Student's t-test).
FIGS. 1J-1K. […] Cells treated with PBS alone were used as a negative control. Data are expressed as means±SD from three independent experiments. *P<0.05, ***P<0.001 (Student's t-test).

MBP-Sb9 [2] = test: Thermal stability assay (TSA) fragment screen; type: binding; settings: 5000 to 21 μM
Description: FIG. 4A. The upper panels show the TSA results of the MBP-Sb9 protein incubated with 5 mM 3,4-dihydroxybenzoic acid (3,4-DHBA; left) and 3-oxo-1-indancarboxylic acid (right), or with 2.5% DMSO. The thermal shifts of the compounds 3,4-dihydroxybenzoic acid and 3-oxo-1-indancarboxylic acid are shown in a thick dark line against a baseline control shown as a thin gray line. The bottom panels show the TSA results of the MBP-Sb9 protein incubated with 3,4-dihydroxybenzoic acid (left) or 3-oxo-1-indancarboxylic acid (right) at different concentrations, including 5000, 1667, 556, 185, 62, and 21 μM. The concentration-response curves are plotted in a black/gray color scale (higher intensity is higher concentration) and the straight line plots represent the compound background signal.
TSA is an analytic tool to estimate the overall stability of a protein by monitoring the shift in its melting temperature upon changing the buffer conditions or titrating various ligands. As the protein unfolds with increasing temperature in a thermal cycler (CFX384 Touch Real-Time PCR Detection System), SYPRO orange dye binds to the exposed hydrophobic core and fluoresces, leading to the signal that is measured in comparison to temperature to produce a melt curve. […] Dye was added at 2×strength, and the readings were performed from 25° C. to 95° C. at 0.5° C. intervals. […]

MBP = MBP (Escherichia coli, UniProt P0AEX9); test: SPR negative control channel; type: binding
Description: FIG. 4B. Sensorgrams of compounds 3,4-dihydroxybenzoic acid (top), 3-oxo-1-indancarboxylic acid (middle), and the compound of Formula (III) (bottom) show the binding of 3,4-dihydroxybenzoic acid and the compound of Formula (III) to Sb9 (top), but not to MBP (bottom) by Surface Plasmon Resonance (SPR).
All assays were run at 25° C. on a BiOptix 404pi. An NTA biosensor chip was used in this study to pre-concentrate 3 μM MBP-Sb9 via an N-terminal His-tag. MBP-Sb9 was covalently immobilized with EDC/NHS in 20 mM HEPES pH 8.0, 150 mM NaCl, 0.05% Tween-20, 5 mM β-ME to 10,000 to 15,000 RUs. MBP was similarly immobilized on a separate channel as a negative control.

MBP-Sb9 [3] = target: T1, MBP-Sb9 (Homo sapiens, UniProt P50453); test: Surface plasmon resonance (SPR) binding; settings: 25° C., 1:1 Langmuir model
T1 construct: made in house
T1 sequence (P50453 whole entry): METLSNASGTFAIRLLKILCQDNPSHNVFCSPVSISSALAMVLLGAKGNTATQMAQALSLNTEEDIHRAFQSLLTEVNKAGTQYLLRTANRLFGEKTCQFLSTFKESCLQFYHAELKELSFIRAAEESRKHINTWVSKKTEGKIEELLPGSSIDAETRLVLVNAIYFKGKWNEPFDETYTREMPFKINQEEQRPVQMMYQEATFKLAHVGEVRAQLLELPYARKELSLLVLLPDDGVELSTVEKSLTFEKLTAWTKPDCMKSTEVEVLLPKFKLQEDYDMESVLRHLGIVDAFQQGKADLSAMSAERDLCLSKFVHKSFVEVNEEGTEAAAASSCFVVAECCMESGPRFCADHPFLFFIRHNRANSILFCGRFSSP
Description: Surface plasmon resonance (SPR) measures change in refractive index on a biosensor surface, as analytic mass accumulates via binding to an attached ligand. This allows derivation of affinity (KD) from measured kinetic rates of association (ka) and dissociation (kd). All assays were run at 25° C. on a BiOptix 404pi. An NTA biosensor chip was used in this study to pre-concentrate 3 μM MBP-Sb9 via an N-terminal His-tag. MBP-Sb9 was covalently immobilized with EDC/NHS in 20 mM HEPES pH 8.0, 150 mM NaCl, 0.05% Tween-20, 5 mM β-ME to 10,000 to 15,000 RUs. MBP was similarly immobilized on a separate channel as a negative control. Compounds were injected as 3-fold serial dilutions in duplicate starting at 200 μM. Injections were done at 50 μL/min for 60 seconds, followed by a 120 second dissociation in 20 mM HEPES, pH 8.0, 150 mM NaCl, 0.05% Tween-20, 5 mM j-ME, 1% DMSO. A series of five DMSO standards between 0.5% and 1.5% were included with each run to correct for bulk refractive index. Sensorgrams were analyzed using Scrubber 2 software with a double reference and fit to a 1:1 Langmuir model to determine the interaction parameters KD, ka, and kd.

SERPINB9 [4] = target: T2, SERPINB9 (Homo sapiens, UniProt P50453); test: Isothermal titration calorimetry (ITC); type: binding; settings: 20 μM SERPINB9 titrated with 200 μM compound, single site model
T2 construct: A construct of human SERPINB9 covering residues 2-376 in the pFastBacl vector; made in house; host or cells: insect Tni (Trichoplusia ni) cells, baculovirus
T2 sequence (P50453 2-376): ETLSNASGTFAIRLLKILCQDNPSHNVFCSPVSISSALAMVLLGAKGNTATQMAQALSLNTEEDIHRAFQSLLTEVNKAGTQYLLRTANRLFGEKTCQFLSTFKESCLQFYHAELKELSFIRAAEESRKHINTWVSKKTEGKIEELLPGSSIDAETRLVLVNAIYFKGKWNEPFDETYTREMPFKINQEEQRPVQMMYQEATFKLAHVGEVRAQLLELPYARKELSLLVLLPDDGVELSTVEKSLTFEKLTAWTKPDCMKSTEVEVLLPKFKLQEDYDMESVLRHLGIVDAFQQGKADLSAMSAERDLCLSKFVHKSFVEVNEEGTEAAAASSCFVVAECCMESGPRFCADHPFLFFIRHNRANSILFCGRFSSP
Description: In an attempt to produce a soluble variant of Sb9, a construct was designed in which a maltose-binding protein (MBP) was added at the N-terminus (FIG. 4B). Sb9 was soluble in multiple growth media conditions using this strategy. The condition (1 mM IPTG, 37° C., 3 h) for best expression was selected for biomass production with 5 L culture. The cells were lysed and clarified by centrifugation. The fusion protein was then captured by Ni-NTA affinity purification, such that it was eluted using high concentration imidazole. Then, the resulting protein was further purified by anionic exchange chromatography using a MonoQ column and a NaCl gradient for elution. An amount of 31.4 mg protein was obtained. The purified Sb9 protein was characterized by SDS-PAGE and MALDI-TOF mass spectrometry (MS). A construct of human SERPINB9 covering residues 2-376 in the pFastBacl vector (Invitrogen) was overexpressed in insect Tni (Trichoplusia ni.) cells adapted for suspension culture in ESF921 medium (Expression systems). Cells were grown at 27° C. to a density of ˜2 million cells per mL, infected with baculovirus containing SERPINB9 construct, collected by centrifugation around 60 hrs post-infection, and stored at −80° C. […]

SERPINB9 [5] = target: T2, SERPINB9; test: Ligand-detected NMR (DLB, STD, CPMG-R2); type: binding
Text: Ligand-focused NMR. To test the binding of Compound 27 and Compound 225 to SERPINB9, we used three ligand-detected nuclear magnetic resonance (NMR) methods: differential line broadening (DLB), saturation transfer difference (STD), and Carr-Purcell-Meiboom-Gill-transverse relaxation rate (CPMG-R2). […] Second, on-resonance saturation of SERPINB9 decreased the intensity of compound peaks in the STD experiment, indicating transmission of magnetization energy from SERPINB9 to proximal ligands. Finally, as ligands engaging the target protein relax faster (compared to free small molecules that have slow transverse relaxation rates in CPMG-R2 experiments), we saw a decreased relaxation time in the presence of a protein directly indicating binding of the ligand to that protein.

Structure (SMILES) | Tm1 shift (MBP-Sb9 [2]) | pKd (SERPINB9 [4]) | binding to SERPINB9 by ligand-detected NMR (SERPINB9 [5]) | also measured
C[C@H](NC(=O)OCc1ccccc1)C(=O)N[C@@H](C)C(=O)N[C@@H](CC(=O)O)C(=O)CCl [GrB inhibitor (368050)] (Cbz-Ala-Ala-Asp-CH2Cl) | – | – | – | apoptosis of IL2-treated cells [1]: suppresses apoptosis
O=C(O)c1ccc(O)c(O)c1 [3,4-dihydroxybenzoic acid, reference compound] | dose-dependent Tm1 shift | – | – | binding to MBP (negative control) (MBP): not to MBP; pKd (MBP-Sb9 [3]): 4.06
CCOc1ccc(C(=O)NCc2ccccc2)cc1O [Compound 227, N-benzyl-4-ethoxy-3-hydroxybenzamide] | – | 4.54 | SERPINB9 binders | –
CCN(C)C(=O)c1ccc2nc(-c3ccccc3)oc2c1 [Compound 27, N-ethyl-N-methyl-2-phenyl-1,3-benzoxazole-6-carboxamide] | – | 4.67 | SERPINB9 binders | –
O=C1CC(C(=O)O)c2ccccc21 (stereo not drawn) [3-oxo-1-indancarboxylic acid] | dose-dependent Tm1 shift | – | – | –
